The values that follow are results of earlier work, collected in patent US20060210650A1, “Supplemental dietary composition for promoting weight loss” (priority 2004, published 2006).

The conditions of this series: 8-week study.

On to `O=C(O)CC(O)(C(=O)O)C(O)C(=O)O` (single isomer, unassigned; (-)) [HCA, (−) hydroxycitric acid], for which the “High-Density Lipoproteins and excretion of urinary fat metabolites” value is recorded as “increased”; the “LDL-cholesterol, triglycerides and serum leptin levels” value is on record as “decrease”.
